Data published in patent US20260216103A1, “USE OF LONG-ACTING ß2AR AGONIST IN PREPARATION OF DRUGS FOR TREATING CANCERS” (HONG KONG SXMETEROL PHARMACEUTICAL CO., LIMITED, priority 2023, published 2026).

Legend:
[1] = tested on: gastric cancer cells SNU-1; test: tumor sphere formation assay of gastric cancer cells; format: cell-based; conditions: 10 μM, 7 d; FIG. 23; P<0.001
Excerpt: (§1) As a gold standard for detecting the self-renewal capability of cancer stem cells in vitro, a tumor sphere formation assay may detect individual cancer stem cell that continuously self-renew in a conditioned medium and form tumor spheres consisting of multiple cells. This in vitro experiment is often used to test the responsiveness of clinical patients to anticancer drugs, and guide in vivo medication of the clinical patients.
According to culture conditions in Table 13, gastric cancer cells SNU-1 were subjected to a tumor sphere formation assay, and treated with salmeterol xinafoate (SX) at a concentration of 10 μM.

[2] = tested on: bladder cancer cells RT4; test: tumor sphere formation assay of bladder cancer cells; format: cell-based; conditions: 1 μM, 3 μM, or 10 μM, 7 d; FIG. 16
Excerpt: as §1

[3] = tested on: RT4 bladder cancer cells; test: subcutaneous tumorigenesis experiment with SX-pretreated bladder cancer cells; format: in vivo, mice; conditions: cells treated with 10 μM SX for 3 d, 1×10^6/mouse; FIG. 9; P<0.0001 vs control
Method: (§2) Experimental method and steps: Cancer cells were treated with salmeterol xinafoate (SX) in vitro for 3-7 d, and a subcutaneous or orthotopic tumorigenesis experiment was conducted on mice.
RT4 bladder cancer cells were treated with 10 μM salmeterol xinafoate (SX) for 3 d, and cells (1×10^6/mouse) were subcutaneously injected on both sides of the back of mice in a control group and an SX treated group (5 mice/group) to conduct a tumorigenesis experiment.
Experimental results in FIG. 9 show cancer growth curves.

[4] = tested on: H460 lung cancer cells; test: subcutaneous tumorigenesis experiment with SX-pretreated lung cancer cells (H460); format: in vivo, mice; conditions: cells treated with 10 μM SX for 7 d
Method: as §2
In FIG. 6A, H460 lung cancer cells were treated with 10 μM salmeterol xinafoate (SX) for 7 d, and cells (3×10^5/mouse) were subcutaneously injected on both sides of the back of mice in a control group (7 mice) and an SX treated group (5 mice) to conduct a tumorigenesis experiment.
(§3) Experimental results in FIG. 6 show cancer growth curves and representative cancer photos.

[5] = tested on: KYSE-150 esophageal cancer cells; test: subcutaneous tumorigenesis experiment with SX-pretreated esophageal cancer cells; format: in vivo, mice; conditions: cells treated with 10 μM SX for 3 d, 1×10^6/mouse; FIG. 8; P<0.0001 vs control
Method: as §2
KYSE-150 esophageal cancer cells were treated with 10 μM salmeterol xinafoate (SX) for 3 d, and cells (1×10^6/mouse) were subcutaneously injected on both sides of the back of mice in a control group and an SX treated group (3 mice/group) to conduct a tumorigenesis experiment.
Experimental results in FIG. 8 show cancer growth curves.

[6] = tested on: cancer stem cells of 17 cancers; test: tumor sphere formation assays of cancer cells, summary over 17 cancers; format: cell-based; conditions: summary of Examples 1-9; agonist used alone
Excerpt: as §1
Cancer stem cells have self-renewal capability, which determines the initiation and progression of cancers. As a gold standard for detecting the self-renewal capability of cancer stem cells in vitro, a tumor sphere formation assay may detect individual cancer stem cells that continuously self-renew in a conditioned medium and form tumor spheres consisting of multiple cells.

[7] = tested on: ovarian cancer cells SKOV3; test: tumor sphere formation assay of ovarian cancer cells; format: cell-based; conditions: 1 μM, 3 μM, or 10 μM, 7 d; FIG. 21
Excerpt: as §1

[8] = tested on: hematoma cells SU-DHL-8; test: tumor sphere formation assay of hematoma cells; format: cell-based; conditions: 1 μM, 3 μM, or 10 μM, 7 d; FIG. 18
Excerpt: as §1

[9] = tested on: liver cancer cells Hep G2; test: tumor sphere formation assay of liver cancer cells; format: cell-based; conditions: 1 μM, 3 μM, or 10 μM, 7 d; FIG. 20
Excerpt: as §1

[10] = tested on: kidney cancer cells G-401, 786-O; test: tumor sphere formation assay of kidney cancer cells; format: cell-based; conditions: 1 μM, 3 μM, or 10 μM, 7 d; FIG. 22
Excerpt: as §1

[11] = tested on: LLC lung cancer cells; test: subcutaneous tumorigenesis experiment with SX-pretreated lung cancer cells (LLC); format: in vivo, mice; conditions: cells treated with 10 μM SX for 7 d
Method: as §2
In FIG. 6B, LLC lung cancer cells were treated with 10 μM salmeterol xinafoate (SX) for 7 d, and cells (1×10^5/mouse) were subcutaneously injected on both sides of the back of mice in a control group (8 mice) and an SX treated group (5 mice) to conduct a tumorigenesis experiment.
as §3

[12] = tested on: osteosarcoma cells U2OS; test: tumor sphere formation assay of osteosarcoma cells; format: cell-based; conditions: 1 μM, 3 μM, or 10 μM, 7 d; FIG. 26; P<0.01
Excerpt: as §1

[13] = tested on: lung cancer cells LLC, H1299, H460, H446; test: tumor sphere formation assay of lung cancer cells; format: cell-based; conditions: 1 μM, 3 μM, or 10 μM, 7 d; FIG. 13
Excerpt: as §1

[14] = tested on: cervical cancer cells Hela; test: tumor sphere formation assay of cervical cancer cells; format: cell-based; conditions: 1 μM, 3 μM, or 10 μM, 7 d; FIG. 27
Excerpt: as §1

[15] = tested on: breast cancer cells MDA-MB-231, 4T1, 168FARN, 67NR, 4TO7; test: tumor sphere formation assay of breast cancer cells; format: cell-based; conditions: 1 μM, 3 μM, or 10 μM, 7 d; FIG. 11
Excerpt: as §1
Experimental results in FIG. 11 show the number of tumor spheres from at least 3 independent experiments and representative tumor sphere photos.

[16] = tested on: pancreatic cancer cells CFPAC-1, PANC-1; test: tumor sphere formation assay of pancreatic cancer cells; format: cell-based; conditions: 1 μM, 3 μM, or 10 μM, 7 d; FIG. 24
Excerpt: as §1

[17] = tested on: melanoma cells B16F10, A375, A2058; test: tumor sphere formation assay of melanoma cells; format: cell-based; conditions: 1 μM, 3 μM, or 10 μM, 7 d; FIG. 17
Excerpt: as §1

[18] = tested on: B16F10 melanoma cells; test: tumorigenesis experiment with SX-pretreated melanoma cells; format: in vivo, mice; conditions: cells treated with 10 μM SX for 3 d
Method: as §2
B16F10 melanoma cells were treated with 10 μM salmeterol xinafoate (SX) for 3 d, and cells (1×10^6/mouse) were subcutaneously injected on both sides of the back of mice in a control group and an SX treated group (4 mice/group) to conduct a tumorigenesis experiment. Cancers formed subcutaneously at all 8 injection sites of 4 mice in the control group, and cancers formed subcutaneously also at all 8 injection sites of 4 mice in the SX treated group.
Experimental results in FIG. 10 show cancer growth curves and representative cancer photos.

[19] = tested on: a variety of cancers; test: orthotopic or subcutaneous tumorigenesis experiments in mice, summary; conditions: summary of in vivo tumorigenesis experiments; drug concentration of 10 μM
Method: as §2

## OCc1cc(C(O)CNCCCCCCOCCCCc2ccccc2)ccc1O (stereo not shown) [salmeterol xinafoate]
[1]
  number of tumor spheres (self-renewal capability of cancer stem cells): inhibited the self-renewal capability of the gastric cancer stem cells
[2]
  number of tumor spheres (self-renewal capability of cancer stem cells): inhibited the self-renewal capability of the bladder cancer stem cells in a concentration dependent manner
[3]
  cancer growth curves (initiation and progression): inhibits the initiation and progression of subcutaneous bladder cancer
[4]; 3×10^5/mouse, 10 injection sites of 5 mice, control group 11 at 14 sites
  cancers formed subcutaneously at injection sites: no cancers formed
[4]; FIG. 6A, P<0.0001 vs control
  cancer growth curves (initiation and progression): inhibits the initiation and progression of subcutaneous lung cancer
[5]
  cancer growth curves (initiation and progression): inhibits the initiation and progression of subcutaneous esophageal cancer
[6]
  self-renewal capability of cancer stem cells: can significantly inhibit the self-renewal capability of cancer stem cells of 17 cancers
[7]
  number of tumor spheres (self-renewal capability of cancer stem cells): inhibited the self-renewal capability of the ovarian cancer stem cells in a concentration dependent manner
[8]
  number of tumor spheres (self-renewal capability of cancer stem cells): inhibited the self-renewal capability of the hematoma stem cells in a concentration dependent manner
[9]
  number of tumor spheres (self-renewal capability of cancer stem cells): inhibited the self-renewal capability of the liver cancer stem cells in a concentration dependent manner
[10]
  number of tumor spheres (self-renewal capability of cancer stem cells): inhibited the self-renewal capability of the kidney cancer stem cells in a concentration dependent manner
[11]; 1×10^5/mouse, 10 injection sites of 5 mice, control group all 16 sites
  cancers formed subcutaneously at injection sites: no cancers formed
[11]; FIG. 6B, P<0.0001 vs control
  cancer growth curves (initiation and progression): inhibits the initiation and progression of subcutaneous lung cancer
[12]
  number of tumor spheres (self-renewal capability of cancer stem cells): inhibited the self-renewal capability of the osteosarcoma cancer stem cells
[13]
  number of tumor spheres (self-renewal capability of cancer stem cells): inhibited the self-renewal capability of the lung cancer stem cells in a concentration dependent manner
[14]
  number of tumor spheres (self-renewal capability of cancer stem cells): inhibited the self-renewal capability of the cervical cancer stem cells in a concentration dependent manner
[15]
  number of tumor spheres (self-renewal capability of cancer stem cells): inhibited the self-renewal capability of the breast cancer stem cells in a concentration dependent manner
[16]
  number of tumor spheres (self-renewal capability of cancer stem cells): inhibited the self-renewal capability of the pancreatic cancer stem cells in a concentration dependent manner
[17]
  number of tumor spheres (self-renewal capability of cancer stem cells): inhibited the self-renewal capability of the melanoma stem cells in a concentration dependent manner
[18]; 1×10^6/mouse, 8 injection sites of 4 mice, control group all 8 sites
  cancers formed subcutaneously at injection sites: 8
[18]; FIG. 10, P<0.0001 vs control
  cancer growth curves (initiation and progression): inhibits the initiation and progression of orthotopic melanoma
[19]
  cancer initiation and cancer growth: not only inhibiting cancer initiation but also significantly inhibiting cancer growth
